{
  "source": "patent US20220119460A1",
  "about": "“Means and Methods to Overrule Glucose-Mediated Repression of Respiration in Yeast” (priority 2019, published 2022)",
  "key": {"[1]": {"system": "S. cerevisiae strain AN63", "test": "Population growth lag time measurement, gradual glucose-to-galactose shift with antimycin A", "format": "cell-based", "conditions": "3 μg/ml antimycin A in medium; 0.5% glucose plus 5% galactose; wild type and 41 respiratory deletion mutants (FIG. 2B)", "protocol": "Population Growth Lag Time Measurements (Antimycin a Treatment and Glucose-to-Galactose Shift).\nAll population growth measurements were performed using Bioscreen C machines (Growth Curves USA). For the gradual shift experiments, cells were inoculated in a 96-well plate containing YP plus 5% glucose (high-glucose [HG]) medium and serially diluted for growth overnight at 30° C. shaking at 900 rpm. Cultures at an OD600 of 0.1 were transferred to a new plate and serially diluted in fresh HG medium for growth overnight. The next day, cultures at an OD600 of 0.1 were washed three times into YP plus 0.5% glucose (low glucose [LG]) plus the appropriate carbohydrate source, with or without 3 μg/ml of antimycin A, and diluted so that the initial cell concentration for the Bioscreen C measurements was 10^5 cells/ml. […]\nwhere the cx subscript stands for corrected and the me subscript stands for measured.\n(§1) The growth rate was then obtained by calculating the discrete derivative of In(OD600,me) versus time. […] In the case of two exponential phases in the growth curve (i.e., conditions with a mix of carbon sources in the medium), the maximum growth rate for each phase (maxR1, maxR2) was detected. Once these parameters were determined, the lag time was calculated by the time difference between two time points: the start and the end. […]"}, "[2]": {"system": "S. cerevisiae strain AN63", "test": "Growth rate in stable sugar conditions (5% galactose) with antimycin A", "format": "cell-based", "conditions": "41 respiratory deletion mutants, compared with slowest growing mutants without the compound (FIG. 2D)", "protocol": "All population growth measurements were performed using Bioscreen C machines (Growth Curves USA). For the gradual shift experiments, cells were inoculated in a 96-well plate containing YP plus 5% glucose (high-glucose [HG]) medium and serially diluted for growth overnight at 30° C. shaking at 900 rpm. Cultures at an OD600 of 0.1 were transferred to a new plate and serially diluted in fresh HG medium for growth overnight. The next day, cultures at an OD600 of 0.1 were washed three times into YP plus 0.5% glucose (low glucose [LG]) plus the appropriate carbohydrate source, with or without 3 μg/ml of antimycin A, and diluted so that the initial cell concentration for the Bioscreen C measurements was 10^5 cells/ml. OD600 measurements were taken every 15 min for 7 days or until the cultures reached stationary phase.\nThe same procedure was followed for the stationary growth experiments, replacing the HG medium from pregrowth and the final growth medium with 5% galactose. […]\nas §1"}},
  "data": [
    {"substance": "antimycin A", "values": [
      {"measurement": "prolongation of the lag times", "setting": "[1]", "result": "up to 2.2 fold"},
      {"measurement": "growth rate in the presence of antimycin A", "setting": "[2]", "result": "equally low growth rates"}
    ]}
  ]
}
